Measurements reported in PubChem BioAssay AID282 (DTP/NCI, 2004).
Values joined by “and” are separate entries in the source; they are usually repeats but may differ in a detail not shown here. Equal values may be shown once. Toxic doses and inconclusive results are not listed.

System: BDF1 mice, L1210 terephthalanilide-resistant leukemia ip, survival T/C
Test: NCI In Vivo Anticancer Drug Screen. Data for tumor model L1210 Leukemia resistant to A Terephthalanilide; NSC 38280 (intraperitoneal) in B6D2F1 (BDF1) mice
Details: endpoint: mean survival time, higher = longer survival
Description: The antitumor activity of compounds was measured in mice bearing transplantable tumors. Survival or tumor size were measured and the results are expressed as the measurement made in the treated group (T) divided by the measurement made in the vehicle treated control group (C). The tumor model used in this assay is L1210 Leukemia resistant to A Terephthalanilide; NSC 38280 (intraperitoneal) in B6D2F1 (BDF1) mice

[1] = dose: 2.0 mg/kg/injection, schedule: Q01DX010 (ip), vehicle: saline
[2] = dose: 4.0 mg/kg/injection, schedule: Q01DX010 (ip), vehicle: saline
[3] = dose: 2.5 mg/kg/injection, schedule: Q01DX010 (ip), vehicle: saline
[4] = dose: 10.0 mg/kg/injection, schedule: Q01DX010 (ip), vehicle: saline
[5] = dose: 20.0 mg/kg/injection, schedule: Q01DX010 (ip), vehicle: saline
[6] = dose: 12.5 mg/kg/injection, schedule: Q01DX010 (ip), vehicle: saline
[7] = dose: 25.0 mg/kg/injection, schedule: Q01DX010 (ip), vehicle: saline
[8] = dose: 50.0 mg/kg/injection, schedule: Q01DX010 (ip), vehicle: saline
[9] = dose: 100.0 mg/kg/injection, schedule: Q01DX010 (ip), vehicle: saline

In the case of C=CC(CN1CC1)OC(C)=O (stereo not given), the T/C [1] was 101 % of control, the T/C [2] was 119 % of control and the T/C (dose: 16.0 mg/kg/injection, schedule: Q01DX010 (ip), vehicle: saline) was 114 % of control.

CC[n+]1c(-c2ccccc2)c2cc(N)ccc2c2ccc(N)cc21 was tested, and the T/C (dose: 1.25 mg/kg/injection, schedule: Q01DX010 (ip), vehicle: saline) was 100 % of control, the T/C [3] was 90 % of control and the T/C (dose: 5.0 mg/kg/injection, schedule: Q01DX010 (ip), vehicle: saline) was 101 % of control. The T/C [4] was 95 % of control.

In the case of CC[n+]1ccccc1-c1ccc(NC(=O)c2ccc(C(=O)Nc3ccc(-c4ccccn4)cc3)cc2)cc1, the T/C [3] was 115 % of control, the T/C [4] was 119 % of control and the T/C [5] was 92 % of control.

With O=C(Nc1ccc(NC(=O)Nc2cccc(C3=NCCN3)c2)cc1)Nc1cccc(C2=NCCN2)c1 the T/C (dose: 60.0 mg/kg/injection, schedule: Q01DX Z (ip), vehicle: carboxymethylcellulose (CMC)) was 96 % of control, the T/C (dose: 120.0 mg/kg/injection, schedule: Q01DX Z (ip), vehicle: carboxymethylcellulose (CMC)) was 106 % of control and the T/C (dose: 240.0 mg/kg/injection, schedule: Q01DX Z (ip), vehicle: carboxymethylcellulose (CMC)) was 106 % of control.

In the case of C[C@@H]1C[C@H]2CC[C@H](O2)[C@H](C)C(=O)O[C@@H](C)C[C@@H]2CC[C@@H](O2)[C@@H](C)C(=O)O[C@H](C)C[C@H]2CC[C@H](O2)[C@H](C)C(=O)O[C@@H](C)C[C@@H]2CC[C@@H](O2)[C@@H](C)C(=O)O1, the T/C (dose: 45.0 mg/kg/injection, schedule: Q01DX Z (ip), vehicle: carboxymethylcellulose (CMC)) was 92 % of control, the T/C (dose: 90.0 mg/kg/injection, schedule: Q01DX Z (ip), vehicle: carboxymethylcellulose (CMC)) was 95 % of control and the T/C (dose: 180.0 mg/kg/injection, schedule: Q01DX Z (ip), vehicle: carboxymethylcellulose (CMC)) was 104 % of control. The T/C (dose: 360.0 mg/kg/injection, schedule: Q01DX Z (ip), vehicle: carboxymethylcellulose (CMC)) was 108 % of control.

For Cn1c(O)c(N=NC(N)=S)c2ccccc21, the T/C (dose: 25.0 mg/kg/injection, schedule: Q01DX Z (ip), vehicle: carboxymethylcellulose (CMC)) was 93 % of control, the T/C (dose: 50.0 mg/kg/injection, schedule: Q01DX Z (ip), vehicle: carboxymethylcellulose (CMC)) was 90 % of control and the T/C (dose: 100.0 mg/kg/injection, schedule: Q01DX Z (ip), vehicle: carboxymethylcellulose (CMC)) was 87 % of control. For the same compound, the T/C (dose: 200.0 mg/kg/injection, schedule: Q01DX Z (ip), vehicle: carboxymethylcellulose (CMC)) was 89 % of control.

With OCC1OC(n2cnc3c(=S)nc[nH]c32)C(O)C1O (stereo not given) the T/C [5] was 111 % of control, the T/C (dose: 40.0 mg/kg/injection, schedule: Q01DX010 (ip), vehicle: saline) was 119 % of control and the T/C (dose: 160.0 mg/kg/injection, schedule: Q01DX010 (ip), vehicle: saline) was 162 % of control.

In the case of C=C1C[C@H]2[C@@H]3C=C(C)C4=CC(=O)CC[C@]4(C)[C@H]3CC[C@]2(C)[C@@]1(OC(C)=O)C(C)=O, the T/C (dose: 62.5 mg/kg/injection, schedule: Q01DX010 (sc), vehicle: steriod suspending solution) was 101 % of control, the T/C (dose: 125.0 mg/kg/injection, schedule: Q01DX010 (sc), vehicle: steriod suspending solution) was 93 % of control and the T/C (dose: 250.0 mg/kg/injection, schedule: Q01DX010 (sc), vehicle: steriod suspending solution) was 97 % of control. For the same compound, the T/C (dose: 500.0 mg/kg/injection, schedule: Q01DX010 (sc), vehicle: steriod suspending solution) was 95 % of control.

For O=c1[nH]c(=O)n(C2CC(O)C(CO)O2)cc1Br (stereo not given), the T/C (dose: 62.5 mg/kg/injection, schedule: Q01DX Z (ip), vehicle: carboxymethylcellulose (CMC)) was 110 % of control and the T/C (dose: 500.0 mg/kg/injection, schedule: Q01DX Z (ip), vehicle: carboxymethylcellulose (CMC)) was 119 % of control.

With CCN(CC)c1ccc2cc3ccc(=[N+](CC)CC)cc-3oc2c1 the T/C (dose: 1.0 mg/kg/injection, schedule: Q01DX010 (ip), vehicle: saline) was 98 % of control, the T/C [1] was 91 % of control and the T/C [2] was 96 % of control.

For CNc1nc(Nc2ccc(C3=NCCN3)cc2)nc(Nc2ccc(C3=NCCN3)cc2)n1, the T/C (dose: 13.3 mg/kg/injection, schedule: Q01DX010 (ip), vehicle: saline) was 100 % of control, the T/C [5] was 94 % of control and the T/C (dose: 30.0 mg/kg/injection, schedule: Q01DX010 (ip), vehicle: saline) was 99 % of control. For the same compound, the T/C (dose: 45.0 mg/kg/injection, schedule: Q01DX010 (ip), vehicle: saline) was 97 % of control.

With S=P(N1CC1)(N1CC1)N1CC1 the T/C (dose: 0.75 mg/kg/injection, schedule: Q01DX010 (ip), vehicle: saline) was 97 % of control and 115 % of control, the T/C (dose: 1.5 mg/kg/injection, schedule: Q01DX010 (ip), vehicle: saline) was 124 % of control and 105 % of control and the T/C (dose: 3.0 mg/kg/injection, schedule: Q01DX010 (ip), vehicle: saline) was 118 % of control. For the same compound, the T/C (dose: 6.0 mg/kg/injection, schedule: Q01DX010 (ip), vehicle: saline) was 94 % of control and 100 % of control.

For CC(=O)Nc1ccc2nc3ccc(NC(C)=O)cc3[n+](-c3ccccc3)c2c1, the T/C (dose: 10.0 mg/kg/injection, schedule: Q01DX Z (ip), vehicle: carboxymethylcellulose (CMC)) was 108 % of control, the T/C [6] was 107 % of control and the T/C (dose: 20.0 mg/kg/injection, schedule: Q01DX Z (ip), vehicle: carboxymethylcellulose (CMC)) was 117 % of control. The T/C [7] was 109 % of control and 110 % of control, the T/C [8] was 121 % of control and 104 % of control and the T/C [9] was 106 % of control and 112 % of control. For the same compound, the T/C (dose: 150.0 mg/kg/injection, schedule: Q01DX Z (ip), vehicle: carboxymethylcellulose (CMC)) was 121 % of control, the T/C (dose: 300.0 mg/kg/injection, schedule: Q01DX Z (ip), vehicle: carboxymethylcellulose (CMC)) was 120 % of control and the T/C (dose: 400.0 mg/kg/injection, schedule: Q01DX Z (ip), vehicle: carboxymethylcellulose (CMC)) was 91 % of control.

With COS(C)(=O)=O the T/C [6] was 93 % of control, the T/C [7] was 101 % of control and the T/C (dose: 25.0 mg/kg/injection, schedule: Q01DX Z (ip), vehicle: saline) was 95 % of control. For the same compound, the T/C [8] was 102 % of control, the T/C (dose: 50.0 mg/kg/injection, schedule: Q01DX Z (ip), vehicle: saline) was 101 % of control and the T/C (dose: 75.0 mg/kg/injection, schedule: Q01DX Z (ip), vehicle: saline) was 106 % of control. For the same compound, the T/C [9] was 100 % of control and the T/C (dose: 100.0 mg/kg/injection, schedule: Q01DX Z (ip), vehicle: saline) was 106 % of control.

For CN(C)CC(=O)c1ccc(O)c(O)c1, the T/C (dose: 134.0 mg/kg/injection, schedule: Q01DX010 (ip), vehicle: saline) was 104 % of control, the T/C (dose: 135.0 mg/kg/injection, schedule: Q01DX010 (ip), vehicle: saline) was 114 % of control and the T/C (dose: 200.0 mg/kg/injection, schedule: Q01DX010 (ip), vehicle: saline) was 104 % of control and 105 % of control. For the same compound, the T/C (dose: 300.0 mg/kg/injection, schedule: Q01DX010 (ip), vehicle: saline) was 120 % of control and 97 % of control and the T/C (dose: 450.0 mg/kg/injection, schedule: Q01DX010 (ip), vehicle: saline) was 121 % of control and 110 % of control.

In the case of C1CN1c1nc(N2CC2)nc(N2CC2)n1, the T/C (dose: 0.13 mg/kg/injection, schedule: Q01DX010 (ip), vehicle: saline) was 108 % of control, the T/C (dose: 0.25 mg/kg/injection, schedule: Q01DX010 (ip), vehicle: saline) was 99 % of control and the T/C (dose: 0.5 mg/kg/injection, schedule: Q01DX010 (ip), vehicle: saline) was 104 % of control.

OCC1OC(n2cnc3c(Cl)ncnc32)C(O)C1O (stereo not given) was tested, and the T/C (dose: 62.5 mg/kg/injection, schedule: Q01DX010 (ip), vehicle: saline) was 90 % of control and 99 % of control, the T/C (dose: 125.0 mg/kg/injection, schedule: Q01DX010 (ip), vehicle: saline) was 96 % of control and 101 % of control and the T/C (dose: 250.0 mg/kg/injection, schedule: Q01DX010 (ip), vehicle: saline) was 97 % of control and 103 % of control. The T/C (dose: 500.0 mg/kg/injection, schedule: Q01DX010 (ip), vehicle: saline) was 101 % of control and 106 % of control.
